The values below come from patent US12097192B2 (Corcept Therapeutics Incorporated, priority 2019, dated 2024).

For data set [1], the system named is Cushing syndrome patients. In words: Adverse events with other medical therapies for Cushing syndrome. The class given is in vivo, human. The settings on record: one patient treated previously with mifepristone.
Data set [2] deals with Cushing syndrome patients. The settings on record: patients treated with either mifepristone or metyrapone; cited from earlier work.

For the molecule `CC#C[C@]1(O)CC[C@H]2[C@@H]3CCC4=CC(=O)CCC4=C3[C@@H](c3ccc(N(C)C)cc3)C[C@@]21C` [mifepristone], the “adverse event on previous therapy” value in data set [1] is recorded as “developed endometrial hypertrophy”.
Take `CC(C)(C(=O)c1cccnc1)c1cccnc1` [metyrapone]: the drug induced hypokalemia result in data set [2] is on record as “commonly seen adverse event”.
